Test results: patent US20220348549A1 (Hoffmann-La Roche Inc., priority 2019, published 2022)

These molecules were tested on HBV cccDNA (HBeAg level in HepDES19 cells) (assay: Engineered HepDES19 primary screen assay (HBeAg ELISA as surrogate marker for cccDNA)). Settings: Hepatitis B virus, HepDES19, 120 h.
Type: cell-based
Source text: The assay was employed to screen for novel HBV cccDNA inhibitors. HepDES19 is a HBV cccDNA-producing cell line. In this cell line, HBeAg in the cell culture supernatant as surrogate marker, as HBeAg production depends on cccDNA level and activity. HepDES19 is an engineered cell line which contains a 1.1 unit length HBV genome, and pgRNA transcription from the transgene is controlled by Tetracycline (Tet). In the absence of Tet, pgRNA transcription will be induced, but HBV e antigen (HBeAg) could not be produced from this pgRNA due to very short leader sequence before the HBeAg start codon and the start codon is disrupted. Only after cccDNA is formed, the missing leader sequence and start codon mutation would be restored from the 3′-terminal redundancy of pgRNA, and then HBeAg could be synthesized. Therefore, HBeAg could be used as a surrogate marker for cccDNA (Zhou, T. et al., Antiviral Res. (2006), 72(2), 116-124; Guo, H. et al., J. Virol. (2007), 81(22), 12472-12484).
HepDES19 cells were seeded at 2×10^6 cells per T150 flask and cultured with the culture medium (Dulbecco's Modified Eagle Medium: Nutrient Mixture F-12 [DMEM-F12, Gibco Cat. 11320-82], 10% Fetal Bovine Serum [FBS, Clontech Cat. 631101], 0.1 mM Non-Essential Amino Acids Solution [NEAA, Gibco Cat. 11140-050], 50 μg/mL Penicillin-Streptomycin [PS, Invitrogen Cat. 15140-163], 500 μg/mL Geneticin [G418, Invitrogen Cat. 10131-027]) containing 3 μg/mL Tet (Sigma, Cat. 87128) for 5 days. Cells were then seeded at 4×10^6 cells per T150 in the same culture medium as described above in the absence of Tet for 8 days. Cells were then harvested and frozen at density of 2×10^6 cells per mL. For compound testing, the frozen cells were thawed and seeded into 96-well plates at a density of 6×10^4 cells per well. At 24 hrs after seeding, half log serial dilutions of compounds made with Dimethyl sulfoxide (DMSO, Sigma, Cat. D2650) were further diluted with the same culture medium as described above before they were added to the cells to reach desired final compound concentrations and 1% DMSO concentration. Plates were then incubated at 37° C. for another 5 days before measurement of HBeAg level and cell viability. Intracellular HBeAg level were measured with enzyme-linked immunosorbent assay (ELISA) kit (Shanghai Kehua Diagnostic Medical Products Co., Ltd). Cell viability was assessed using Cell Counting Kit-8 (Donjindo, Cat. CK04-20). IC50 values were derived from the dose-response curve using 4 parameter logistic curve fit method.
The compounds of the present invention were tested for their capacity to inhibit extracellular HBeAg level as described herein.
Oc1ccc(-c2ncc3cccc(Cl)c3n2)cn1 [Example 25, 5-(8-Chloroquinazolin-2-yl)pyridin-2-ol] showed an IC50 of 4680 nM.
In the case of Clc1cccc2cnc(-c3ccc(N4CCOCC4)nc3)nc12 [Example 27, 4-(5-(8-Chloroquinazolin-2-yl)pyridin-2-yl)morpholine], the IC50 is reported as 590 nM.
In the case of O=C(O)c1nc(-c2ccc(Br)cc2)nc2c(Cl)cccc12 [Example 37, 2-(4-Bromophenyl)-8-chloroquinazoline-4-carboxylic acid], the IC50 is reported as 2240 nM.
Molecule O=C(O)c1nc(-c2ccc(Cl)nc2)nc2c(Cl)cccc12 [Example 45, 8-Chloro-2-(6-chloro-3-pyridyl)quinazoline-4-carboxylic acid] has an IC50 of 660 nM.
With Cc1nc(-c2cccc(C(F)(F)F)c2)nc2cc(Br)ccc12 [Example 3, 7-Bromo-4-methyl-2-[3-(trifluoromethyl)phenyl]quinazoline] the IC50 was 750 nM.
In the case of Cc1nc(-c2ccc(Cl)cc2)nc2c(Cl)cccc12 [Example 13, 8-Chloro-2-(4-chlorophenyl)-4-methylquinazoline], the IC50 is reported as 1030 nM.
In the case of O=C(O)c1cccc(COc2ccc(-c3ncc4cccc(Cl)c4n3)cc2)c1 [Example 7, 3-((4-(8-Chloroquinazolin-2-yl)phenoxy)methyl)benzoic acid], the IC50 is reported as 220 nM.
With CCOc1ccc(-c2nc(C(=O)O)c3cccc(Cl)c3n2)cn1 [Example 48, 8-Chloro-2-(6-ethoxy-3-pyridyl)quinazoline-4-carboxylic acid] the IC50 was 7570 nM.
COC(=O)c1cccc(COc2ccc(-c3ncc4cccc(Cl)c4n3)cc2)c1 [Example 6, Methyl 3-((4-(8-chloroquinazolin-2-yl)phenoxy)methyl)benzoate] was tested, and the IC50 was 6160 nM.
With O=C(O)[C@H]1C[C@@H](OCCOc2ccc(-c3ncc4cccc(Cl)c4n3)cc2)C1 [Example 42, cis-3-[2-[4-(8-Chloroquinazolin-2-yl)phenoxy]ethoxy]cyclobutanecarboxylic acid] the IC50 was 16900 nM.
O=C(NCCO)c1nc(-c2ccc(Cl)nc2)nc2c(Cl)cccc12 [Example 52, 8-Chloro-2-(6-chloro-3-pyridyl)-N-(2-hydroxyethyl)quinazoline-4-carboxamide] was tested, and the IC50 was 160 nM.
With COc1ccc(-c2nc(C(=O)NCCO)c3cccc(Cl)c3n2)cc1 [Example 35, 8-Chloro-N-(2-hydroxyethyl)-2-(4-methoxyphenyl)quinazoline-4-carboxamide] the IC50 was 16100 nM.
With Cc1nc(-c2cccc(CO)c2)nc2cc(C(F)(F)F)ccc12 [Example 22, (3-(4-Methyl-7-(trifluoromethyl)quinazolin-2-yl)phenyl)methanol] the IC50 was 7130 nM.
CCOC(=O)c1nc(-c2ccc(Br)cc2)nc2c(Cl)cccc12 [Example 38, ethyl 2-(4-bromophenyl)-8-chloro-quinazoline-4-carboxylate] showed an IC50 of 1160 nM.
Work on COC(=O)COCCOc1ccc(-c2nc(C)c3cccc(Cl)c3n2)cc1 [Example 10, Methyl 2-[2-[4-(8-chloro-4-methyl-quinazolin-2-yl)phenoxy]ethoxy]acetate] yielded an IC50 of 1040 nM.
For NC(=O)c1nc(-c2ccc(Cl)nc2)nc2c(Cl)cccc12 [Example 46, 8-chloro-2-(6-chloro-3-pyridyl)quinazoline-4-carboxamide], the IC50 was 110 nM.
COCc1nc(-c2cccc(Br)c2)nc2cc(C(F)(F)F)ccc12 [Example 16, 2-(3-Bromophenyl)-4-(methoxymethyl)-7-(trifluoromethyl)quinazoline] gave an IC50 of 2390 nM.
Work on O=C(O)c1nc(-c2ccc(OCCO[C@H]3C[C@@H](C(=O)O)C3)nc2)nc2c(Cl)cccc12 [Example 50, cis-2-[6-[2-(3-Carboxycyclobutoxy)ethoxy]-3-pyridyl]-8-chloro-quinazoline-4-carboxylic acid] yielded an IC50 of 15000 nM.
O=C(O)C1CC(OCCOc2ccc(-c3nc(C(F)(F)F)c4cccc(Cl)c4n3)cc2)C1 (stereo not drawn) [Example 56, 3-[2-[4-[8-chloro-4-(trifluoromethyl)quinazolin-2-yl]phenoxy]ethoxy]cyclobutanecarboxylic acid] showed an IC50 of 7860 nM.
Cc1nc(-c2ccc(OCCO[C@H]3C[C@@H](C(=O)O)C3)cc2)nc2c(Cl)cccc12 [Example 12, cis-3-[2-[4-(8-Chloro-4-methyl-quinazolin-2-yl)phenoxy]ethoxy]cyclobutanecarboxylic acid] gave an IC50 of 63 nM.
With Cc1nc(-c2ccc(OCCOCC(=O)O)cc2)nc2cc(C(F)(F)F)ccc12 [Example 14, 2-(2-(4-(4-Methyl-7-(trifluoromethyl)quinazolin-2-yl)phenoxy)ethoxy)acetic acid] the IC50 was 29900 nM.
O=C(NCCCl)c1nc(-c2ccc(Br)cc2)nc2c(Cl)cccc12 [Example 39, 2-(4-Bromophenyl)-8-chloro-N-(2-chloroethyl)quinazoline-4-carboxamide] was tested, and the IC50 was 1170 nM.
O=C(O)c1nc(-c2ccc(N3CCCC3)nc2)nc2c(Cl)cccc12 [Example 49, 8-Chloro-2-(6-pyrrolidin-1-yl-3-pyridyl)quinazoline-4-carboxylic acid] was tested, and the IC50 was 11000 nM.
Work on Clc1cccc2cnc(-c3cccc(Br)c3)nc12 [Example 2, 2-(3-Bromophenyl)-8-chloroquinazoline] yielded an IC50 of 360 nM.
For CN(C)Cc1nc(-c2cccc(Br)c2)nc2cc(C(F)(F)F)ccc12 [Example 17, 1-(2-(3-Bromophenyl)-7-(trifluoromethyl)quinazolin-4-yl)-N,N-dimethylmethanamine], the IC50 was 4660 nM.
Cc1nc(-c2ccc(OCc3cccc(C(=O)O)c3)cc2)nc2c(Cl)cccc12 [Example 8, 3-((4-(8-Chloro-4-methylquinazolin-2-yl)phenoxy)methyl)benzoic acid] showed an IC50 of 460 nM.
In the case of COc1ccc(-c2nc(C(N)=O)c3cccc(Cl)c3n2)cc1 [Example 34, 8-chloro-2-(4-methoxyphenyl)quinazoline-4-carboxamide], the IC50 is reported as 2220 nM.
Work on FC(F)(F)c1ccc2c(CN3CCOCC3)nc(-c3cccc(Br)c3)nc2c1 [Example 18, 4-((2-(3-Bromophenyl)-7-(trifluoromethyl)quinazolin-4-yl)methyl)morpholine] yielded an IC50 of 1930 nM.
For Clc1cccc2cnc(-c3ccc(Br)cc3)nc12 [Example 1, 2-(4-Bromophenyl)-8-chloroquinazoline], the IC50 was 100 nM.
In the case of COc1ccc(-c2nc(C(=O)O)c3cccc(Cl)c3n2)cc1 [Example 33, 8-Chloro-2-(4-methoxyphenyl)quinazoline-4-carboxylic acid], the IC50 is reported as 7750 nM.
Work on Cc1nc(-c2ccc(Br)cc2)nc2c(Cl)cccc12 [Example 40, 2-(4-Bromophenyl)-8-chloro-4-methyl-quinazoline] yielded an IC50 of 82 nM.
OCCN(CCO)c1ccc(-c2ncc3cccc(Cl)c3n2)cn1 [Example 28, 2,2′-((5-(8-Chloroquinazolin-2-yl)pyridin-2-yl)azanediyl)diethanol] gave an IC50 of 300 nM.
Work on O=C(O)c1nc(-c2ccc(Br)cc2)nc2cc(C(F)(F)F)ccc12 [Example 43, 2-(4-Bromophenyl)-7-(trifluoromethyl)quinazoline-4-carboxylic acid] yielded an IC50 of 12900 nM.
With O=C(O)COCCOc1ccc(-c2ncc3cccc(Cl)c3n2)cn1 [Example 51, 2-[2-[[5-(8-Chloroquinazolin-2-yl)-2-pyridyl]oxy]ethoxy]acetic acid] the IC50 was 4860 nM.
For COc1nc(-c2ccc(OCCOC3CC(C(=O)O)C3)cc2)nc2c(Cl)cccc12 (stereo not drawn) [Example 55, 3-(2-(4-(8-Chloro-4-methoxyquinazolin-2-yl)phenoxy)ethoxy)cyclobutanecarboxylic acid], the IC50 was 26 nM.
Molecule O=C(O)C1CCN(c2ccc(-c3ncc4cccc(Cl)c4n3)cn2)CC1 [Example 30, 1-(5-(8-chloroquinazolin-2-yl)pyridin-2-yl)piperidine-4-carboxylic acid] has an IC50 of 7630 nM.
Molecule Cc1nc(-c2ccc(OCCOC3CC(C(=O)O)C3)cc2)nc2cc(C(F)(F)F)ccc12 (stereo not drawn) [Example 15, 3-(2-(4-(4-Methyl-7-(trifluoromethyl)quinazolin-2-yl)phenoxy)ethoxy) cyclobutanecarboxylic acid] has an IC50 of 60 nM.
Cc1nc(-c2ccc(Cl)nc2)nc2c(Cl)cccc12 [Example 23, 8-Chloro-2-(6-chloropyridin-3-yl)-4-methylquinazoline] was tested, and the IC50 was 220 nM.
O=C(c1nc(-c2ccc(Br)cc2)nc2cc(C(F)(F)F)ccc12)N1CCOCC1 [Example 44, [2-(4-Bromophenyl)-7-(trifluoromethyl)quinazolin-4-yl]-morpholino-methanone] gave an IC50 of 8700 nM.
